Measured values reported in patent US20100173780A1, “POLYPHENOL-CONTENT-[…] FOR PLANT” (COSMO OIL CO., LTD., priority 2006, published 2010).

Assays:
[1] = system: green pepper; experiment: Amount of polyphenol in green pepper after ALA treatment (HPLC); assay type: in vivo, green pepper (Solanaceae, genus cayenne, race Miogi)
Experimental: (§1) Two containers (length: 0.75 m, width 0.5 m) were provided and soil was placed in each of them. A Chemical fertilizer (nitrogen content:phosphorus content:potassium content=15:15:15 as mass ratio) was used as a base fertilizer and young plants of green pepper (Solanaceae, genus cayenne, race Miogi) were grown for two months according to a conventional method. Water was applied to the young plants once a day by means of a sprinkling can. Prior to one month from harvest, treatment was conducted once a week with 50 mL per container of each aqueous solution containing 0 ppm (control) or 1 ppm of 5-aminolevulinic acid hydrochloride to which a spreading agent, Approach BI (manufactured by Kao Corporation) had been added in a ratio of 0.1% by mass. After harvest, 3 g of green pepper was finely cut with scissors and a kitchen knife and then homogenized after addition of water. The homogenized one was diluted up to 6 mL with distilled water (stock solution) and the stock solution was divided into three even portions and used in the following extraction methods (1) to (3). (1) Three mL of ethyl acetate was added to 2 mL of the stock solution and the resultant one was centrifuged at 3000 rpm for 10 minutes. The supernatant was transferred to a spit tube and was evaporated to dryness with nitrogen gas while the tube was immersed in a warm bath at about 60° C. Thereto were added 200 μL of methanol and 100 μL of distilled water, thereby the volume being made 300 μL. (2) Two mL of methanol was added to 2 mL of the stock solution and the resultant one was centrifuged at 3000 rpm for 10 minutes. The supernatant was transferred to a spit tube and was evaporated to dryness with nitrogen gas while the tube was immersed in a warm bath at about 60° C. Thereto were added 200 μL of methanol and 100 μL of distilled water, thereby the volume being made 300 μL. (3) One mL of 0.1N hydrochloric acid was added to 2 mL of the stock solution and the resultant one was transferred to a plastic tube and kept in a drive-lock bath at 96.5° C. for 1 hour to effect hydrolysis. Five mL of ethyl acetate was added thereto and the resultant one was centrifuged at 3000 rpm for 10 minutes. The supernatant was transferred to a spit tube and was evaporated to dryness with nitrogen gas while the tube was immersed in a warm bath at about 60° C. Thereto were added 200 μL of methanol and 100 μL of distilled water, thereby the volume being made 300 μL. The samples from (1) to (3) were measured by high-performance liquid chromatography (HPLC) (analytical conditions: the measurement was performed at a flow rate of 1.0 mL/min at a column temperature of 40° C. using a wavelength of 350 nm, using Liquid A (80% by volume of methanol/5% by volume of acetic acid) or Liquid B (10% by volume of methanol/5% by volume of acetic acid) as an eluent, and using a column of Hichrom5C18, T898, 4.6 mm×[…] (manufactured by LLOYD′S REGISTER QUALITY COMPANY) and each concentration was calculated based on standard solutions. In Table 1, the most highly extracted value was cited among the results measured with each of the extraction methods (1) to (3). Moreover, the sum of individual concentration of polyphenol used in this time was regarded as the total amount of polyphenol.

[2] = system: asparagus; experiment: Amount of polyphenol in asparagus after ALA treatment (HPLC); assay type: in vivo, asparagus (Liliaceae, genus asparagus, race Welcome); conditions: 3 ppm
Experimental: as §1
Prior to 150 days from harvest, treatment to tetraennial-root asparagus (Liliaceae, genus asparagus, race Welcome) grown in a vertical stem form in a greenhouse was conducted once a fortnight with a spraying amount of 100 L/tan of each solution containing 0 ppm (control) or 3 ppm of 5-aminolevulinic acid hydrochloride. After harvest, the content of polyphenol was analyzed in the same manner as in Example 1.

[3] = system: pear; experiment: Amount of polyphenol in pear after ALA treatment (HPLC); assay type: in vivo, pear (Rosaceae, genus pear, race Kosui); conditions: 3 ppm
Experimental: as §1
Prior to 150 days from harvest, treatment to pear
([…], genus pear, race Kosui) grown in a production farm field was conducted once a fortnight with a spraying amount of 300 L/tan of each aqueous solution containing 0 ppm (control) or 3 ppm of 5-aminolevulinic acid hydrochloride to which a spreading agent, Approach BI (manufactured by Kao Corporation) had been added in a ratio of 0.1% by mass. After harvest, the content of polyphenol was analyzed by HPLC in the same manner as in Example 1.

[4] = system: parsley; experiment: Amount of polyphenol in parsley after ALA treatment (HPLC); assay type: in vivo, parsley (Umbelliferae, genus parsley, race Paramount); conditions: 1 ppm
Experimental: as §1
(§2) Two containers (length: 0.75 m, width 0.5 m) were provided and soil was placed in each of them. A Chemical fertilizer (nitrogen content:phosphorus content:potassium content=15:15:15 as mass ratio) was used as a base fertilizer and seeds of parsley (Umbelliferae, genus parsley, race Paramount) were planted according to a conventional method and water was applied once a day by means of a sprinkling can. Prior to one month from harvest, treatment was conducted once a week with 50 mL per container of each aqueous solution containing 0 ppm (control) or 1 ppm of 5-aminolevulinic acid hydrochloride. After harvest, the content of polyphenol was analyzed in the same manner as in Example 1.

[5] = system: tea; experiment: Amount of polyphenol in tealeaf after ALA treatment (HPLC); assay type: in vivo, tea (Camelliaceae, genus camellia, race Yabukita); conditions: 3 ppm
Experimental: as §1
(§3) Prior to 210 days from harvest, treatment to tea (Camelliaceae, genus camellia, race Yabukita) grown in a production farm field was conducted once a month with a spraying amount of 100 L/tan of each aqueous solution containing 0 ppm (control) or 3 ppm of 5-aminolevulinic acid hydrochloride. After harvest, the content of polyphenol was analyzed by HPLC in the same manner as in Example 1.

[6] = system: pepper; experiment: Amount of polyphenol in pepper after ALA treatment (HPLC); assay type: in vivo, pepper (Solanaceae, genus cayenne; conditions: pepper (race Habanero), 1 ppm
Experimental: as §1
as §2, with “young plants” for “seeds”, “pepper (Solanaceae,” for “parsley (Umbelliferae,”, “cayenne,” for “parsley,”, “Habanero)” for “Paramount)”

[7] = system: green soybean; experiment: Amount of polyphenol in green soybean after ALA treatment (HPLC); assay type: in vivo, green soybean (Lagminosae, genus soybean, race Hakusan); conditions: 1 ppm, 100 L/tan once a fortnight after flowering
Experimental: as §1
as §3, with “green soybean (Lagminosae,” for “tea (Camelliaceae,”, “soybean,” for “camellia,”, “Hakusan)” for “Yabukita)”, “fortnight after flowering” for “month”, “1” for “3”

[8] = 1 ppm, 50 mL per container once a week from one month before harvest, HPLC, highest of extraction methods (1)-(3)
[9] = greenhouse, 100 L/tan once a fortnight from 150 days before harvest, HPLC
[10] = 300 L/tan once a fortnight from 150 days before harvest, HPLC
[11] = 50 mL per container once a week from one month before harvest, HPLC
[12] = 50 mL per container once a week from one month before harvest, sum of the individual polyphenols
[13] = 50 mL per container once a week, versus 0 ppm control
[14] = 100 L/tan once a month from 210 days before harvest, HPLC

## Cl.NCC(=O)CCC(=O)O [ALA, 5-aminolevulinic acid hydrochloride]
[1]; 1 ppm once a week from one month before harvest, sum of the individual polyphenol concentrations
  Total amount of polyphenol in green pepper: 48824 ng/g
[1]; 1 ppm once a week from one month before harvest, versus 0 ppm control
  ALA/control ratio of total amount of polyphenol in green pepper: 9.4
[1]; [8]
  Apigenin amount in green pepper: 0 ng/g
  Caffeic acid amount in green pepper: 276 ng/g
  Chlorogenic acid amount in green pepper: 4856 ng/g
  Ferulic acid amount in green pepper: 5680 ng/g
  Hesperetin amount in green pepper: 236 ng/g
  Isorhamnetin amount in green pepper: 1849 ng/g
  Kaempferol amount in green pepper: 668 ng/g
  Luteolin amount in green pepper: 644 ng/g
  Quercetin amount in green pepper: 28919 ng/g
  Rutin amount in green pepper: 5696 ng/g
[2]; 100 L/tan once a fortnight, versus 0 ppm control
  ALA/control ratio of total amount of polyphenol in asparagus: 2.3
[2]; [9]
  Apigenin amount in asparagus: 456 ng/g
  Caffeic acid amount in asparagus: 0 ng/g
  Chlorogenic acid amount in asparagus: 2983 ng/g
  Ferulic acid amount in asparagus: 9899 ng/g
  Hesperetin amount in asparagus: 20198 ng/g
  Isorhamnetin amount in asparagus: 1022 ng/g
  Kaempferol amount in asparagus: 723 ng/g
  Luteolin amount in asparagus: 1923 ng/g
  Quercetin amount in asparagus: 5533 ng/g
  Rutin amount in asparagus: 40234 ng/g
[2]; greenhouse, 100 L/tan once a fortnight from 150 days before harvest, sum of the individual polyphenols
  Total amount of polyphenol in asparagus: 82971 ng/g
[3]; [10]
  Apigenin amount in pear: 95 ng/g
  Caffeic acid amount in pear: 8400 ng/g
  Chlorogenic acid amount in pear: 1819 ng/g
  Ferulic acid amount in pear: 12456 ng/g
  Hesperetin amount in pear: 81 ng/g
  Isorhamnetin amount in pear: 567 ng/g
  Kaempferol amount in pear: 18 ng/g
  Luteolin amount in pear: 61 ng/g
  Quercetin amount in pear: 111 ng/g
  Rutin amount in pear: 1595 ng/g
[3]; 300 L/tan once a fortnight from 150 days before harvest, sum of the individual polyphenols
  Total amount of polyphenol in pear: 25202 ng/g
[3]; 300 L/tan once a fortnight, versus 0 ppm control
  ALA/control ratio of total amount of polyphenol in pear: 2.3
[4]; [11]
  Apigenin amount in parsley: 1099 ng/g
  Caffeic acid amount in parsley: 4240 ng/g
  Chlorogenic acid amount in parsley: 20820 ng/g
  Ferulic acid amount in parsley: 0 ng/g
  Hesperetin amount in parsley: 110685 ng/g
  Isorhamnetin amount in parsley: 4388 ng/g
  Kaempferol amount in parsley: 10321 ng/g
  Luteolin amount in parsley: 2733 ng/g
  Quercetin amount in parsley: 37699 ng/g
  Rutin amount in parsley: 28977 ng/g
[4]; [12]
  Total amount of polyphenol in parsley: 220962 ng/g
[4]; [13]
  ALA/control ratio of total amount of polyphenol in parsley: 3.5
[5]; [14]
  Apigenin amount in tealeaf: 915 ng/g
  Caffeic acid amount in tealeaf: 0 ng/g
  Chlorogenic acid amount in tealeaf: 3474 ng/g
  Ferulic acid amount in tealeaf: 17172 ng/g
  Hesperetin amount in tealeaf: 25887 ng/g
  Isorhamnetin amount in tealeaf: 3881 ng/g
  Kaempferol amount in tealeaf: 970 ng/g
  Luteolin amount in tealeaf: 2181 ng/g
  Quercetin amount in tealeaf: 8249 ng/g
  Rutin amount in tealeaf: 4519 ng/g
[5]; 100 L/tan once a month from 210 days before harvest, sum of the individual polyphenols
  Total amount of polyphenol in tealeaf: 67248 ng/g
[5]; 100 L/tan once a month, versus 0 ppm control
  ALA/control ratio of total amount of polyphenol in tealeaf: 1.1
[6]; [11]
  Apigenin amount in pepper: 2570 ng/g
  Caffeic acid amount in pepper: 5520 ng/g
  Chlorogenic acid amount in pepper: 18020 ng/g
  Ferulic acid amount in pepper: 9270 ng/g
  Hesperetin amount in pepper: 0 ng/g
  Isorhamnetin amount in pepper: 270 ng/g
  Kaempferol amount in pepper: 0 ng/g
  Luteolin amount in pepper: 62060 ng/g
  Quercetin amount in pepper: 26700 ng/g
  Rutin amount in pepper: 457080 ng/g
[6]; [12]
  Total amount of polyphenol in pepper: 581490 ng/g
[6]; [13]
  ALA/control ratio of total amount of polyphenol in pepper: 1.4
[7]; HPLC
  Apigenin amount in green soybean: 11 ng/g
  Caffeic acid amount in green soybean: 0 ng/g
  Chlorogenic acid amount in green soybean: 17 ng/g
  Ferulic acid amount in green soybean: 3963 ng/g
  Hesperetin amount in green soybean: 1841 ng/g
  Isorhamnetin amount in green soybean: 0 ng/g
  Kaempferol amount in green soybean: 0 ng/g
  Luteolin amount in green soybean: 19 ng/g
  Quercetin amount in green soybean: 261 ng/g
  Rutin amount in green soybean: 1032 ng/g
[7]; sum of the individual polyphenols
  Total amount of polyphenol in green soybean: 7143 ng/g
[7]; versus 0 ppm control
  ALA/control ratio of total amount of polyphenol in green soybean: 1.4
